One test deals with T1, AChE (Electrophorus electricus, UniProt O42275).
T1 construct: The enzymes AChE and BuChE were obtained from electric eel and equine serum, respectively; from tissue; host or cells: electric eel
Description: biochemical. On the procedure:
(§1) The in vitro cholinesterase assay of the synthesized curcumin analogs were carried out according to the Ellman’s method with slight modification. The enzymes AChE and BuChE were obtained from electric eel and equine serum, respectively. […] The final concentrations of AChE 0.03 U/mL and 0.01 U/mL of BuChE were achieved. […] The experiment was started by adding 5 µL enzyme solutions to cuvette, then 205 µL test sample and 5 µL DTNB reagents were added. Substrate solution (5 µL) was added, and the solution mixture was kept in a water bath for 15 min at 30 °C.

For another test, the target named is T2, BuChE (Equus caballus, UniProt P81908).
T2 construct: The enzymes AChE and BuChE were obtained from electric eel and equine serum, respectively; from tissue; host or cells: equine serum
In words: biochemical. On the procedure:
as §1

The test system of test [1] is scopolamine-induced amnesic mice. In words: Elevated plus maze (EPM), scopolamine-induced amnesia. It is filed as in vivo. An excerpt:
Elevated plus maze paradigm is an important behavioral model for evaluation of anti-amnesic potentials in mice. This apparatus comprised of two open and two closed arms with dimensions of 16 cm × 5 cm × 12 cm and elevated 25 cm from the floor on a wooden stand. The EPM was designed in plus shape from two acrylic sheets having a central platform with dimensions of 5 cm × 5 cm. Initially, mice were placed in one of the open arms in such a way that it was directed away from the central platform. Then TLT was recorded after the mice moved to the closed arm, with their four legs from the open arm and then the mice were returned to their home cage. The time of exploration of the apparatus for each animal was 90 s. […] Reduction of TLT indicated memory-enhancing effect of the test samples. The inflexion ratio (IR) was calculated as: IR=L0−L1/L0 where L1 presents the initial transfer latency (s), and L0 is the retention transfer latency (s).

Test [2] has the same test system. In words: Novel object recognition test (NORT), scopolamine-induced amnesia. It is filed as in vivo. On the procedure:
In this study, the memory-enhancing potentials of synthesized compounds were determined using novel object recognition test mice model. Dimensions of the apparatus were 40 cm × 40 cm × 30 cm and designed from Plexiglass in a box shape. After acclimatization, the mice were habituated with the apparatus for 2–3 min one day before the test. Initially, in the sample phase, two identical objects were placed in the two corners of the apparatus and the mice were allowed to freely explore the apparatus. The objects in the apparatus were explored by each animal either by touching the objects or keeping their noses within 2 cm of them. […] Mice were allowed again to freely explore both the objects in a similar way as in sample phase, and the time spent by each animal exploring the novel and familiar object (F) was recorded.
The following formula was used for calculation of discrimination index. D1=N—F /N+F
D1 = discrimination index; N = novel object; F = familiar object

For test [3] the test system is unchanged. In words: Y-maze test, scopolamine-induced amnesia.
Description: A total of sixteen groups of mice, with six in each group, were used in the experiment. Vehicle treated group (Normal control group) were administered 10 mL/kg (p.o) of normal saline. […] Sample treatment groups were administered 7.5 mg/kg and 15 mg/kg (p.o) of synthesized compounds, respectively.
The dimensions of the arms were 15.5 cm high, 6 cm wide, 20 cm long and connected with each other with an angle of 120°. This test was conducted for a 5 min duration for each animal. The order and number of arm entries made by each animal after placing in one arm were recorded. Complete arm entry in any given arm was considered to be when the hind paws were completely inside, and the alternation was the consecutive arm entries into three different arms by each mouse. Ethanol 70% v/v solution was used to clean the Y-maze arena to avoid olfactory cues between each test. […] Mice were freely allowed to explore the objects when they were initially placed at the center of the apparatus. The formula was used to calculate the %SAP by recording the same arm returns (SAR), alternate arm returns (AAR) and the number of arm entries.
Test [4] addresses T3, AChE activity in the hippocampi of mice brains (Mus musculus, UniProt P21836).
T3 construct: from tissue; host or cells: mouse bilateral hippocampus homogenate, supernatant
T3 sequence (P21836 32-614): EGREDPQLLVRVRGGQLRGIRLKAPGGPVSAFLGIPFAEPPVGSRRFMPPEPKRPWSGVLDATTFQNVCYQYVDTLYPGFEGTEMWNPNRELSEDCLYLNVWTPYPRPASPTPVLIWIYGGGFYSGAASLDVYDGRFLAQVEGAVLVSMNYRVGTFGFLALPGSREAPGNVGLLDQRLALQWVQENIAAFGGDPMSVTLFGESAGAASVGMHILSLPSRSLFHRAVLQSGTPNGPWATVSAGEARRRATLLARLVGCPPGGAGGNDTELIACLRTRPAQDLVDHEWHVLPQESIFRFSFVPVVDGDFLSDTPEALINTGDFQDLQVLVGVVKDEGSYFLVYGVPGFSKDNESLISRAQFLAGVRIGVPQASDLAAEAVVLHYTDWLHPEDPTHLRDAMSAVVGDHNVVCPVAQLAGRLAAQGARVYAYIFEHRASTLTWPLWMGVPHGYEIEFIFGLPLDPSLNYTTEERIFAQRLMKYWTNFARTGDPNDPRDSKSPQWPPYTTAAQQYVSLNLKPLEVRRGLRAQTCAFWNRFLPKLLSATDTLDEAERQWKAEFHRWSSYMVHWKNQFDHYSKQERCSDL
It is filed as in vivo. To be noted: ex vivo, vs scopolamine treated group, n = 6. On the procedure:
(§2) After the behavioral study, the mice were sacrificed by decapitation, providing a quick and painless death by cervical dislocation. The isolated brain of each animal in chilled phosphate buffer saline was subjected into biomarker assays using AChE and BuChE enzymes.
Mice were sacrificed within 24 h of the behavior study; brains were dissected and stored at −80 °C. […] Supernatant was used for the measurement of cholinesterase (AChE and BuChE) activity.
Acetylcholine/Acetyl cholinesterase assay Kit was used for the determination of AChE activity, according to the standard procedure. The assay was carried out using 96-well plate, and every reaction comprised of 100 µL sample, 200 µM Amplex Red reagent, 50 µM of acetylcholine, 1 U/mL horseradish peroxidase (HRP) and 0.1 U/mL choline oxidase in buffer solution. Incubation period for the reaction mixture was 20 min at room temperature in the dark. The fluorescence intensity at 560 nm excitation and 580 nm emission wavelength was measured.

The target of test [5] is T4, BuChE activity in the hippocampi of mice brains (Mus musculus, UniProt Q03311).
T4 construct: from tissue; host or cells: mouse bilateral hippocampus homogenate, supernatant
Description: Ex vivo BuChE activity in the brain hippocampus. To be noted: vs scopolamine treated group, n = 6. Here is the method: as §2
Mice were sacrificed within 24 h of the behavior study; brains were dissected and stored at −80 °C. The bilateral hippocampus was homogenized before the assay into volumes of 0.01 M phosphate buffer (2.7 mM KCl, 137 mM NaCl, 2 mM KH2PO4, 10 mM Na2HPO4) and centrifuged at 4 °C for 30 min at 12,000× g. Supernatant was used for the measurement of cholinesterase (AChE and BuChE) activity.
Butyrylcholinesterase (BuChE) activity of the synthesized compounds were measured according to Ellman method with slight modification. BuSCh was hydrolyzed by BuChE and choline iodide produced, which reacted with DNTB, and then the production of TNB. The TNB was quantitated by calorimetry that indicated the BuChE activity. BuChE assay was accomplished in 96-well plate and every reaction mixture contained 40 µL sample, 80 µL DTNB (0.25 mg/mL) and 70 µL BuSCh (7.5 mM). The absorbance was determined at 37 °C after incubation for 60 min.

Setting [6] is: AChE from electric eel, Ellman's method, n = 3, read-out: AChEI (IC50 (nM)).
Where [7] appears, read: BuChE from equine serum, Ellman's method, n = 3, read-out: BuChEI (IC50 (nM)).
[8] abbreviates: 7.5 mg/kg p.o. 7 days, scopolamine 1 mg/kg i.p.
Setting [9] is: 15 mg/kg p.o. 7 days, scopolamine 1 mg/kg i.p.
Where [10] appears, read: long-term memory (after 24 h), 7.5 mg/kg.
Where [11] appears, read: long-term memory (after 24 h), 15 mg/kg.
The mark [12] stands for this setting: short-term memory, donepezil 2 mg/kg.
Setting [13] is: short-term memory, test phase, donepezil 2 mg/kg.

Read-outs that look alike come from different tables or passages of the source.

Experimental findings from paper PMC9029618, “Attenuation of Scopolamine-Induced Amnesia via Cholinergic Modulation in Mice by Synthetic Curcumin Analogs” (Molecules, 2022) are described below.

T2 sequence (P81908 whole entry): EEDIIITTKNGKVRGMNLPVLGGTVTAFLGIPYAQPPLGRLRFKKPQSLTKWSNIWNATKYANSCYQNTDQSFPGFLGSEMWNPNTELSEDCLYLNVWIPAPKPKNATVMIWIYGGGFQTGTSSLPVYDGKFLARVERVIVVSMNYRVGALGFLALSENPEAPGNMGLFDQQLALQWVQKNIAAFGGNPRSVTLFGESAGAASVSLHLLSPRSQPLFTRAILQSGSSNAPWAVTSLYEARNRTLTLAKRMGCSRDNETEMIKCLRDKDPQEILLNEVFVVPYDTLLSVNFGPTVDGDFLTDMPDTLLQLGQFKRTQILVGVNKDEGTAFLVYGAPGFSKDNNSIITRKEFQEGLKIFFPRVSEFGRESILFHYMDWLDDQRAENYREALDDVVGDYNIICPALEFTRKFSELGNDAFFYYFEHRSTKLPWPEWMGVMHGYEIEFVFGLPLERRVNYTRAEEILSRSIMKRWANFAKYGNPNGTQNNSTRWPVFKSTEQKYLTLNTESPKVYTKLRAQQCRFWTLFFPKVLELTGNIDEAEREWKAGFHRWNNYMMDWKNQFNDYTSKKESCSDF
T1 sequence (O42275 24-633): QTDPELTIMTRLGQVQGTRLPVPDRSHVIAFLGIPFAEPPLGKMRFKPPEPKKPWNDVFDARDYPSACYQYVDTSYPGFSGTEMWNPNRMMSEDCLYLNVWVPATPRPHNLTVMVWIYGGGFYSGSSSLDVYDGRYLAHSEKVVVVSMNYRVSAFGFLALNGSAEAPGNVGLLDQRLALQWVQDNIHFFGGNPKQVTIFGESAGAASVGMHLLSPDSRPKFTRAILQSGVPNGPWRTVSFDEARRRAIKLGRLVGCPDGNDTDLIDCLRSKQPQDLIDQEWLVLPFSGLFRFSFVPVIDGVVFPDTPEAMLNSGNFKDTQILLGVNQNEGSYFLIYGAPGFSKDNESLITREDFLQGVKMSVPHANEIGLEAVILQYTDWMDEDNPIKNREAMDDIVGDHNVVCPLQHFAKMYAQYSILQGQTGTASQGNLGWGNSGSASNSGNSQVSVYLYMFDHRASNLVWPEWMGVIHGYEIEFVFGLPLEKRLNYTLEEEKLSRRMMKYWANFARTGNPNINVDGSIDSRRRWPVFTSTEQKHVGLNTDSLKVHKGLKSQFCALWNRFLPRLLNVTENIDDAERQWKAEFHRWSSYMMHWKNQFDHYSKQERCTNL
T4 sequence (Q03311 30-603): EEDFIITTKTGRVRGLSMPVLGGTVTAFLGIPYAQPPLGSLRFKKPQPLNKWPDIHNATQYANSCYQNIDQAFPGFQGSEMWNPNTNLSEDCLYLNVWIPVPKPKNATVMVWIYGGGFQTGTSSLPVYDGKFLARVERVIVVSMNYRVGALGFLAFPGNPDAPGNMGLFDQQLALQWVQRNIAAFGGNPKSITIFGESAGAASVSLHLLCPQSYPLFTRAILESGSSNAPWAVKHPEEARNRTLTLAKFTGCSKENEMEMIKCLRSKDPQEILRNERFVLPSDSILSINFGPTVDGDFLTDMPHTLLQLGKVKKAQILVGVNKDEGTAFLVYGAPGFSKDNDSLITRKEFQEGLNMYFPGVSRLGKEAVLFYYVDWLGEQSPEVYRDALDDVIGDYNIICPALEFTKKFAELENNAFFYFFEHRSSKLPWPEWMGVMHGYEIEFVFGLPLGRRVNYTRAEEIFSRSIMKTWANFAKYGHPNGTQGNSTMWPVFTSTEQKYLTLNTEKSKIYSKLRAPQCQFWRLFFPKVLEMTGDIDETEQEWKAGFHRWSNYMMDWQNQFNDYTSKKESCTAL

As for `O=C(/C=C/c1ccccc1)CC(=O)/C=C/c1ccccc1` [Compound 1a, (1E,6E)-1,7-diphenylhepta-1,6-diene-3,5-dione], the IC50 is 2620 nM on AChE (setting [6]) and 5350 nM at BuChE (setting [7]). Also, the “effect on TLT vs amnesic group” value in test [1] (setting [8]) and in test [1] (setting [9]) was “non-significant” in each case. The “discrimination index (DI)” value is listed as “no significant change” in test [2] (setting [10]); “no significant change” in test [2] (setting [11]); 54.53% in test [2] (short-term memory, 7.5 mg/kg); 55.10% in test [2] (short-term memory, 15 mg/kg). In addition, the “% spontaneous alternation performance (% SAP)” value in test [3] (setting [8]) and in test [3] (setting [9]) was “poor response” each time.
On to `Cc1ccc(/C=C/C(=O)CC(=O)/C=C/c2ccc(C)cc2)cc1` [Compound 1b, (1E,6E)-1,7-di-p-tolylhepta-1,6-diene-3,5-dione], for which the values for the IC50 at AChE (setting [6]) and on BuChE (setting [7]) were 734 nM and 2160 nM, respectively. Besides, the results for the “effect on TLT vs amnesic group” value in test [1] (setting [8]) and in test [1] (setting [9]) were “non-significant” and “poor response”, respectively. In addition, the “discrimination index (DI)” value in test [2] (setting [10]) came to 52.45%; in test [2] (setting [11]), 53.61%; in test [2] (short-term memory, 7.5 mg/kg) it was 55.68%; in test [2] (short-term memory, 15 mg/kg) it was 57.47%. In addition, in test [4], the “effect on scopolamine-increased AChE activity in hippocampus” value is recorded as “markedly reduced the increased activity of AChE”. The “% spontaneous alternation performance (% SAP)” value in test [3] (setting [8]) and in test [3] (setting [9]) was “poor response” each time.
As to `COc1ccc(/C=C/C(=O)CC(=O)/C=C/c2ccc(OC)cc2)cc1` [Compound 1c, (1E,6E)-1,7-bis(4-methoxyphenyl)hepta-1,6-diene-3,5-dione], the IC50 amounted to 467 nM on AChE (setting [6]) and 1360 nM on BuChE (setting [7]). Moreover, the “effect on TLT vs amnesic group” value in test [1] (setting [8]) and in test [1] (setting [9]) was “reduced TLT” in each case. Also, the “discrimination index (DI)” value came out at 60.58% in test [2] (setting [10]); 62.28% in test [2] (setting [11]); 60.16% in test [2] (short-term memory, 7.5 mg/kg); 61.25% in test [2] (short-term memory, 15 mg/kg). Further, the “effect on scopolamine-increased AChE activity in hippocampus” value in test [4] is “markedly reduced the increased activity of AChE”. For the same molecule, in test [5], the “effect on scopolamine-increased BuChE activity in hippocampus” value was “decreased the increased BuChE activity”. The “% spontaneous alternation performance (% SAP)” value in test [3] (setting [8]) is reported as 47.16 ± 2.77%; in test [3] (setting [9]), 62.33 ± 184%.
Turning to `CN(C)c1ccc(/C=C/C(=O)CC(=O)/C=C/c2ccc(N(C)C)cc2)cc1` [Compound 1e, (1E,6E)-1,7-bis(4-(dimethylamino)phenyl)hepta-1,6-diene-3,5-dione], the IC50 on AChE (setting [6]) came to 3270 nM; on BuChE (setting [7]), 6640 nM. The “effect on TLT vs amnesic group” value in test [1] (setting [8]) and in test [1] (setting [9]) was “non-significant” in each case. Moreover, the “discrimination index (DI)” value in test [2] (setting [10]) is given as “no significant change”; in test [2] (setting [11]), “no significant change”; in test [2] (short-term memory, 7.5 mg/kg) it was “no promising potential”; in test [2] (short-term memory, 15 mg/kg), “no promising potential”. For the same molecule, the “% spontaneous alternation performance (% SAP)” value in test [3] (setting [8]) and in test [3] (setting [9]) was “non-significant” each time.
`O=C(/C=C/c1ccc([N+](=O)[O-])cc1)CC(=O)/C=C/c1ccc([N+](=O)[O-])cc1` [Compound 1f, (1E,6E)-1,7-bis(4-nitrophenyl)hepta-1,6-diene-3,5-dione]: the IC50 was found to be 5840 nM against AChE and 9660 nM on BuChE. The “effect on TLT vs amnesic group” value in test [1] (setting [8]) and in test [1] (setting [9]) was “non-significant” throughout. In addition, the “discrimination index (DI)” value is reported as “no significant change” in test [2] (setting [10]); “no significant change” in test [2] (setting [11]); “no promising potential” in test [2] (short-term memory, 7.5 mg/kg); “no promising potential” in test [2] (short-term memory, 15 mg/kg). The “% spontaneous alternation performance (% SAP)” value in test [3] (setting [8]) and in test [3] (setting [9]) was “non-significant” throughout.
Turning to `COc1cc2c(cc1OC)C(=O)C(CC1CCN(Cc3ccccc3)CC1)C2` (stereo not drawn) [Donepezil, reference compound], in test [1] (donepezil 2 mg/kg p.o. 7 days, scopolamine 1 mg/kg i.p., p < 0.001 vs amnesic group), the “transfer latency time (TLT)” value amounted to 34.57 ± 1.93 s. For the same molecule, in test [2] (setting [12]), the “% DI, familiar object” value came out at 32.32% and the “% DI, novel object” value is 65.26%. Moreover, in test [2] (setting [13]), the “time spent exploring the familiar object” value came to 11.49 ± 1.39 s and the “time spent exploring the novel object” value is listed as 21.59 ± 1.44 s.
As for `CN1[C@@H]2C[C@@H](OC(=O)[C@H](CO)c3ccccc3)C[C@H]1[C@@H]1O[C@@H]12` [Scopolamine], the “TLT vs vehicle treated group” value in test [1] (scopolamine 1 mg/kg i.p. alone (amnesic group)) is listed as “significantly higher transfer latency time”. Moreover, the “% spontaneous alternation performance (% SAP)” value in test [3] (scopolamine 1 mg/kg i.p. alone (amnesic group), normal controls 70.16 ± 4.58) is reported as 37.66 ± 3.94%.
